“And” between values parts separate entries of the source, which are not always exact repeats. Equal entries are not always repeated.
What was measured:
pregnant guinea pigs = assay: Abortive activity in pregnant guinea pigs; format: in vivo, guinea pig; conditions: 30 mg/animal/day s.c., pregnancy days 43 and 44
Protocol: In female animals, the second day of vaginal opening in the mating cycle was defined as day 1 of pregnancy (pregnancy length approx. 62 days). They were treated on days 43 and 44 by subcutaneous (s.c.) injection of the proprietary compounds EC312, EC313, EC323, and EC328 as well as UPA. All tested compounds were synthesized in Evestra Inc. The dose levels administered were 3, 10, and 30 mg/animal/day. The external genital organs were inspected for the presence of vaginal bleeding and fetal membranes (twice daily). The presence of expelled fetuses and placentae in the cages was also recorded at each inspection.
The animals were sacrificed on day 50 using CO2. Both uterine horns were dissected and their contents were inspected. Fresh corpora lutea (CL) were evidence of a recent ovulation.

PR-B – NCoR = target: T1, PR-B – NCoR (Homo sapiens, UniProt P06401); assay: PR-B – NCoR interaction, two-hybrid system; format: cell-based
T1 construct: expressed in transfected cells
T1 sequence (P06401 whole entry): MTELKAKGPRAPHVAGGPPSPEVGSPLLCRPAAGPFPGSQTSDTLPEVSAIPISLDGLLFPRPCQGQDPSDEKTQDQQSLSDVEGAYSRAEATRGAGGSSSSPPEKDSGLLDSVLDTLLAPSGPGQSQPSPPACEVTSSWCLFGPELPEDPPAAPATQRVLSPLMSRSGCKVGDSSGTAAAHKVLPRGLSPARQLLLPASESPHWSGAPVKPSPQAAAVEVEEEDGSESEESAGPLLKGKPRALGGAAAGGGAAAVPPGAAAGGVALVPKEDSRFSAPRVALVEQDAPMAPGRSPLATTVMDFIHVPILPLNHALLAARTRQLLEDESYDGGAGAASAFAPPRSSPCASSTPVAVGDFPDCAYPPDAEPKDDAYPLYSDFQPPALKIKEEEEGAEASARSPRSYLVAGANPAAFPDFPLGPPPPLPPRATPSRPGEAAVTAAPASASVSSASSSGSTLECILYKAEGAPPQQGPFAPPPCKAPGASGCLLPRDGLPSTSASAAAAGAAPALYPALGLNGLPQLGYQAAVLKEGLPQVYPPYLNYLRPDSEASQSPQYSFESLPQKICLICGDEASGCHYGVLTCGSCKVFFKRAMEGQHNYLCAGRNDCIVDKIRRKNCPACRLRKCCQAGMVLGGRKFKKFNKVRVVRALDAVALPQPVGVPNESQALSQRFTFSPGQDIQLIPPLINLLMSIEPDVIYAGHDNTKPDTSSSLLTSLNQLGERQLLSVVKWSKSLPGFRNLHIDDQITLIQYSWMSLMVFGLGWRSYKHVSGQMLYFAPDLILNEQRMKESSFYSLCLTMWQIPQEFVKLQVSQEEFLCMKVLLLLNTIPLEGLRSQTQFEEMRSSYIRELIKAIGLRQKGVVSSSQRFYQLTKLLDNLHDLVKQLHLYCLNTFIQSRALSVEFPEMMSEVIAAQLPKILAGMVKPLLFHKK
T1 sequence (O75376 whole entry partner): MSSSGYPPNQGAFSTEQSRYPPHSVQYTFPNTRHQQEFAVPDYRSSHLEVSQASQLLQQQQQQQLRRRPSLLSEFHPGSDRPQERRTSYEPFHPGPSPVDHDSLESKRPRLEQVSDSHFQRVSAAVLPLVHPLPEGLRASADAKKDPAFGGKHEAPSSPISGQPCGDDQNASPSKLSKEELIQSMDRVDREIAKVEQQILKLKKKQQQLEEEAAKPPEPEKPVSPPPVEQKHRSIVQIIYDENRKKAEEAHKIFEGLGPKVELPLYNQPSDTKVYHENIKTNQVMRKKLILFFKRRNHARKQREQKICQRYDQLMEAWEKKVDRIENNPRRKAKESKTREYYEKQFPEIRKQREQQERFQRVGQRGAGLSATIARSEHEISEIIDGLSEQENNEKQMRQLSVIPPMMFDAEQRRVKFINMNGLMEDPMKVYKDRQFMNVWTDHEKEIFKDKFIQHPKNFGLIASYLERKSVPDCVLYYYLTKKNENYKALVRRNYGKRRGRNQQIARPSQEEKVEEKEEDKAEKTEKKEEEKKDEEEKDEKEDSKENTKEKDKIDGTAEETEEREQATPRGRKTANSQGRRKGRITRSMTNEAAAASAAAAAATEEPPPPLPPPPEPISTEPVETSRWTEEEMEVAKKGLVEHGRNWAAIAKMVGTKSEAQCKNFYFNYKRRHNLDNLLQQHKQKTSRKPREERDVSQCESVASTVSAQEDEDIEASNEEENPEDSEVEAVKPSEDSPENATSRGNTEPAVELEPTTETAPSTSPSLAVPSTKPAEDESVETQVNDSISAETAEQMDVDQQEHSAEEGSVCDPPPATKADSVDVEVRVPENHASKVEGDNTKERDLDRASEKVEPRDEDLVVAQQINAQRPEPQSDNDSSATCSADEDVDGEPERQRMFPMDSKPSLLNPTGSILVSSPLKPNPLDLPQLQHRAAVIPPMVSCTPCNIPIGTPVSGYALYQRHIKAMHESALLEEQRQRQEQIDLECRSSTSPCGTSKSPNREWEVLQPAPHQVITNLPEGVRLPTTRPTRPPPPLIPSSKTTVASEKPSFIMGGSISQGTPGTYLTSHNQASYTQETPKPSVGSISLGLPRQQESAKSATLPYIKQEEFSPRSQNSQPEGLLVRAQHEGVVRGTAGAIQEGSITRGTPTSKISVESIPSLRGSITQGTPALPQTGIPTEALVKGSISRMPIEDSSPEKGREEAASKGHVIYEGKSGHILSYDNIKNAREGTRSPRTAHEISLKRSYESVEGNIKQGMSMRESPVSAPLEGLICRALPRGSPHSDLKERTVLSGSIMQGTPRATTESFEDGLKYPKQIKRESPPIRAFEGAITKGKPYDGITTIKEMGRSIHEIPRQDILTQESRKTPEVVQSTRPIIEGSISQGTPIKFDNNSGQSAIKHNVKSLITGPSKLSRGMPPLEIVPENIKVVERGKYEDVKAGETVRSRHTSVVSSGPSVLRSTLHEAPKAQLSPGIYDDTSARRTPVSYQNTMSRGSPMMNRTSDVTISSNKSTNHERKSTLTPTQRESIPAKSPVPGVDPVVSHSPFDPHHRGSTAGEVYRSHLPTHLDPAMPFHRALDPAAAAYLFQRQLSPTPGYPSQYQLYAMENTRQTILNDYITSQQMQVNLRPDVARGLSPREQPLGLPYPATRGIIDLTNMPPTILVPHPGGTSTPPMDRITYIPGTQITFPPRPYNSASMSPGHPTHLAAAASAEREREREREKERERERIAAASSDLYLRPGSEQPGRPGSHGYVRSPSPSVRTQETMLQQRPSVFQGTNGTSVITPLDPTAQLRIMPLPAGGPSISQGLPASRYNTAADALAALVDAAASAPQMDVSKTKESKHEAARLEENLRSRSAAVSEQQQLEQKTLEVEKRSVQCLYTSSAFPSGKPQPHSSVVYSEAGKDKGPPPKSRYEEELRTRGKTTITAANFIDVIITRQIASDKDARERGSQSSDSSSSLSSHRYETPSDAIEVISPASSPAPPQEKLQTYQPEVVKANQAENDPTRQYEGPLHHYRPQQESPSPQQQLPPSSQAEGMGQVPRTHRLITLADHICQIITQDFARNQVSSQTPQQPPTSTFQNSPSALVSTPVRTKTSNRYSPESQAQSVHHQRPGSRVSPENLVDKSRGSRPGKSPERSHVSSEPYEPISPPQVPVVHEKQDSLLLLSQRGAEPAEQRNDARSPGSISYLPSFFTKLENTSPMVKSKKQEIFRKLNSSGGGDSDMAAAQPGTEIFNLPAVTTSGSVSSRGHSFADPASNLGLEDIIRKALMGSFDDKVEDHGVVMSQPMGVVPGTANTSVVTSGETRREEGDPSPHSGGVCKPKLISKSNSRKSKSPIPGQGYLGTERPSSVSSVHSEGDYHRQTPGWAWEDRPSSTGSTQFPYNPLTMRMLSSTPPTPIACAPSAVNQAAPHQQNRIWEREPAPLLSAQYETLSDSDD
Description: The active recruitment of the nuclear corepressor NCoR results in transcriptional inactivity of the PR. So, the potency of PR ligands to induce the interaction of PR with NCoR provides information on the antagonistic potency of the ligand. Therefore, the capacity of EC313 to induce the interaction of PR-B with the corepressor NCoR in comparison with reference ligands was studied. All test compounds except the receptor agonist Promegestone induced PR to interact with NCoR.
Figure 11 (A) PR-B interaction with NCoR using a two-hybrid assay. Dose response curve. […] (B) Liganded PR-Binteraction with c-SRC kinase. The data presented are from five independent experiments. Signals are represented as mean luminescence ± SD normalized to maximal promegestone activity equal to 100%.

[1] = tested on: adrenalectomized male Wistar rats; assay: Thymus-Involution-Test in adrenalectomized rats; format: in vivo, rat; conditions: doses up to 100 mg/animal/day s.c., 4 days
Protocol: The standard Thymus-Involution-Test in rats was used. […] On day 5 the animals were sacrificed, and the thymus and spleen weights were determined. Reduced weight of the thymus indicated glucocorticoid activity. Stopping the dexamethasone-induced thymus reduction by the test compound indicated anti-glucocorticoid activity.

[2] = target: T2, hGR-LBD purified recombinant protein (Homo sapiens, UniProt P04150); assay: Competitive binding, GR ligand binding domain
T2 construct: purchased Thermo Fisher Scientific
T2 sequence (P04150 524-758 limits assumed): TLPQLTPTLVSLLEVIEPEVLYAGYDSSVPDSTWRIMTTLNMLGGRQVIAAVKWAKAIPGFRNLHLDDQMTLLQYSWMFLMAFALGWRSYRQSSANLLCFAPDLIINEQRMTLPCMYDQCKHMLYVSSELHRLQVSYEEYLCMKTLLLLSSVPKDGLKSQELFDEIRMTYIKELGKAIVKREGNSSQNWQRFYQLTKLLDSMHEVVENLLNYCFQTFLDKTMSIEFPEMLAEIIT
Protocol: The study aimed to characterize the competitive binding profile of EC313 to relevant human nuclear receptors. For the assays, commercially available ‘ligand binding domain’ proteins were purchased (Thermo Fisher Scientific). In addition, the full-length receptor proteins were expressed in transfected HI insect cells using the `Bac-to-bac Baculovirus expression system´ (Thermo Fisher Scientific). Cellular lysates served as receptor preparation. Receptor protein preparations were incubated with tritiated reference ligands and EC313 or reference steroids at concentrations between 0.1 and 1000 nM for 2h at 4°C to reach equilibrium. Subsequently, unbound steroids were adsorbed to dextran-coated charcoal (Sigma Aldrich), separated by filtration, and the remaining radioactivity was quantified in a ß-counter (Perkin Elmer). Displacement curves were fitted using the GraphPad Prism 7 free version to obtain EC50 values. Relative binding affinity (RBA [%], (C50ref/C50test)*100) and the competition coefficient (C50test/C50ref) were used to describe the relative binding potency of EC313 compared to the reference ligands.

[3] = GR-LBD, EC313 relative to Dexamethasone

`C[C@]12C[C@H](c3ccc(-c4ccoc4)cc3)C3=C4CCC(=O)C=C4CC[C@H]3[C@@H]1CC[C@]21OCCC1=C(F)F` [EC313] was tested, and the “expulsion of uterine contents / fetal expulsions (animals)” value (pregnant guinea pigs) was “No fetal expulsions”, the “efficacy relative to Ulipristal acetate, NCoR interaction” value (PR-B – NCoR) was 83% and the “fold lower potency than Ulipristal acetate, NCoR interaction” value (PR-B – NCoR) was 200 fold. For the same compound, the “induction of PR interaction with NCoR” value (PR-B – NCoR) was “limited ability to induce progesterone receptor interaction with NCoR”, the “glucocorticoid / anti-glucocorticoid activity (thymus weight)” value [1] was “neither glucocorticoid nor anti-glucocorticoid activities” and the “Comp. Coefficient” value [2, 3] was 2 and 1.7. For the same compound, the RBA [2, 3] was 60% and the IC50 ([2]; hGR-LBD purified recombinant protein) was 19.1 ± 0.9 nM.
